Test results taken from US7846928B2, “Substituted pyrazolopyridines and salts thereof, pharmaceutical compositions comprising same, methods of preparing same and uses of same” (Bayer Schering Pharma AG, priority 2006, dated 2010).

Legend:
[1] = target: T1, Tie2 (Homo sapiens, UniProt Q02763); test: Tie2 ELISA assay (assay 1): cellular Tie2 autophosphorylation in Tie2-transfected CHO cells stimulated by angiopoietin-2; type: cell-based; design: expressed in transfected cells; host or cells: CHO (DHFR-deficient), stably transfected: CHO Tie2/DHFR; settings: CHO Tie2/DHFR cells, Ang2 stimulated, Tie2 autophosphorylation sandwich-ELISA; pIC50 = -log IC50 molar; read-out: Tie 2 activity (assay 1)
Procedure: Cellular activity of compounds of the present invention as inhibitors of Tie2 kinase activity was measured employing a Tie2 ELISA assay as described in the following paragraphs. Herein CHO cell-cultures, which are stably transfected by known techniques with Tie2 using DHFR deficiency as selection marker, are stimulated by angiopoietin-2. The specific autophosphorylation of Tie2 receptors is quantified with a sandwich-ELISA using anti-Tie2 antibodies for catch and anti-phosphotyrosine antibodies coupled to HRP for detection.
• 96 well tissue culture plate, sterile, Greiner • 96 well FluoroNunc plate MaxiSorp Surface C, Nunc • 96 well plate polypropylene for compound dilution in DMSO • CHO Tie2/DHFR (transfected cells) • PBS−; PBS++, DMSO • MEM alpha Medium with Glutamax-I without Ribonucleosides and • Deoxyribonucleosides (Gibco #32561-029) • with 10% FCS after dialysis! and 1% PenStrep • Lysis buffer: 1 Tablet “Complete” protease inhibitor • 1 cap Vanadate (1 mL>40 mg/mL; working solution 2 mM) • ad 50 mL with Duschl-Puffer • pH 7.6 • Anti-Tie2-antibody 1:425 in Coating Buffer pH 9.6 • Stock solution: 1.275 mg/mL>working: 3 μg/mL • PBST: 2 bottles PBS(10×)+10 ml Tween, fill up with VE-water • RotiBlock 1:10 in VE-water • Anti-Phosphotyrosine HRP-Conjugated 1:10000 in 3% TopBlock • 3% TopBlock in PBST • BM Chemiluminescence ELISA Substrate (POD) • solution B1:100 solution A • SF9 cell culture medium • Ang2-Fc in SF9 cell culture medium Cell Experiment: • Dispense 5×10^4 cells/well/98 μL in 96 well tissue culture plate • Incubate at 37° C./5% CO2 • After 24 h add compounds according to desired concentrations • Add also to control and stimulated values without compounds 2 μL DMSO • And mix for a few min at room temperature • Add 100 μL Ang2-Fc to all wells except control, which receives insect medium • Incubate 20 min at 37° C. • Wash 3× with PBS++ • Add 100 μl Lysis buffer/well and shake a couple of min at room temperature • Store lysates at 20° C. before utilizing for the ELISA Performance of Sandwich-ELISA • Coat 96 well FluoroNunc Plate MaxiSorp Surface C with anti-Tie2 mAb • 1:425 in Coating buffer pH 9.6; 100 μL/well overnight at 4° C. • Wash 2× with PBST • Block plates with 250 μL/well RotiBlock 1:10 in VE-water • Incubate for 2 h at room temperature or overnight at 4° C. shaking • Wash 2× in PBST • Add thawed lysates to wells and incubate overnight shaking at 4° C. • Wash 2× with PBST • Add 100 μL/well anti-Phosphotyrosine HRP-Conjugated 1:10000 in 3% • TopBlock (3% TopBlock in PBST) and incubate overnight under shaking • Wash 6× with PBST • Add 100 μL/well BM Chemiluminescence ELISA Substrate (POD) • solutions 1 und 2 (1:100) • Determine luminescence with the LumiCount. Assay 2: Tie-2-Kinase HTRF-Assay without Kinase Preactivation
Target sequence in this assay (Q02763 23-1124): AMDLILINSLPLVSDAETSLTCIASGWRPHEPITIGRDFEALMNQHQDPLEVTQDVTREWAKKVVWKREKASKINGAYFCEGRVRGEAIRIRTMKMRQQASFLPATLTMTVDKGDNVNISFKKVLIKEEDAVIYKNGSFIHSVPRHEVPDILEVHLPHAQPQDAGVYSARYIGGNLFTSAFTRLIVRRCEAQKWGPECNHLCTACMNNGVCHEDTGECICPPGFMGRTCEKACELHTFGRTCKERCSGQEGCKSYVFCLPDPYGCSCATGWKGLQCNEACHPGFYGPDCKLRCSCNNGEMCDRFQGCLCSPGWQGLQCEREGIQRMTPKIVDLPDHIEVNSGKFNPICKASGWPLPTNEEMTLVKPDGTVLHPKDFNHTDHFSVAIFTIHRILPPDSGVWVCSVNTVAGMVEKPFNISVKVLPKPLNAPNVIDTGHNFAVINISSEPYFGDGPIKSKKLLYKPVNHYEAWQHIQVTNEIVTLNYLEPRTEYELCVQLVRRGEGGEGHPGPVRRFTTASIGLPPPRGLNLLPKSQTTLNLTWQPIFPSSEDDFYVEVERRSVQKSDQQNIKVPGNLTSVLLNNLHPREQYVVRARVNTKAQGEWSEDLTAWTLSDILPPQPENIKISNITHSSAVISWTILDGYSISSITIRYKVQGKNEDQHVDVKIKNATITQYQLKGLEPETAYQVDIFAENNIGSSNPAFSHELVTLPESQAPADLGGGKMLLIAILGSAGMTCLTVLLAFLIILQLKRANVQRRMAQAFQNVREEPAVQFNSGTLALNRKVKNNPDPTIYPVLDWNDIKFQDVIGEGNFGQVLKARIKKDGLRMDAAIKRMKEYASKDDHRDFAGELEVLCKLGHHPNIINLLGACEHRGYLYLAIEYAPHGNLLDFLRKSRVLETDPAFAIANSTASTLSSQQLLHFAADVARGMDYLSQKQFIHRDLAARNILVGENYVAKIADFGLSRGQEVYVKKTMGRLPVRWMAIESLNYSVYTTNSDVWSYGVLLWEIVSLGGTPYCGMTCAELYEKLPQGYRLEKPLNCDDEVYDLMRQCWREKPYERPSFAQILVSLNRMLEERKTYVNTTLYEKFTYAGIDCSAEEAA

[2] = target: T1, Tie2; test: Tie-2-Kinase HTRF-Assay without kinase preactivation (assay 2); type: biochemical; design: fusion protein of GST and the intracellular domains of Tie-2; GST; made in house; host or cells: insect cells (Hi-5); settings: GST-Tie-2 without preactivation, 10 μM ATP; pIC50 = -log IC50 molar
Excerpt: Tie2-inhibitory activity of compounds of the present invention was quantified employing two Tie2 HTRF assay as described in the following paragraphs.
A recombinant fusion protein of GST and the intracellular domains of Tie-2, expressed in insect cells (Hi-5) and purified by Glutathion-Sepharose affinity chromatography was used as kinase. Alternatively, commercially available GST-Tie2-fusion protein (Upstate Biotechnology, Dundee, Scotland) can be used As substrate for the kinase reaction the biotinylated peptide biotin-Ahx-EPKDDAYPLYSDFG (C-terminus in amid form) was used which can be purchased e.g. from the company Biosynthan GmbH (Berlin-Buch, Germany). Detection of phosphorylated product is achieved specifically by a trimeric detection complex consisting of the phosphorylated substrate, streptavidin-XLent (SA-XLent) which binds to biotin, and Europium Cryptate-labeled anti-phosphotyrosine antibody PT66 which binds to phosphorylated tyrosine.
Tie-2 (3.5 ng/measurement point) was incubated for 60 min at 22° C. in the presence of 10 μM adenosine-tri-phosphate (ATP) and 1 μM substrate peptide (biotin-Ahx-EPKDDAYPLYSDFG-NH2) with different concentrations of test compounds (0 μM and concentrations in the range 0.001-20 μM) in 5 μl assay buffer [50 mM Hepes/NaOH pH 7, 10 mM MgCl2, 0.5 mM MnCl2, 1.0 mM dithiothreitol, 0.01% NP40, protease inhibitor mixture (“Complete w/o EDTA” from Roche, 1 tablet per 2.5 ml), 1% (v/v) dimethylsulfoxide]. The reaction was stopped by the addition of 5 μl of an aqueous buffer (25 mM Hepes/NaOH pH 7.5, 0.28% (w/v) bovine serum albumin) containing EDTA (90 mM) and the HTRF (Homogeneous Time Resolved Fluorescence) detection reagents streptavidine-XLent (0.2 μM, from Cis Biointernational, Marcoule, France) and PT66-Eu-Chelate (0.3 ng/μl; a europium-chelate labelled anti-phospho-tyrosine antibody from Perkin Elmer).
The resulting mixture was incubated 1 h at 22° C. to allow the binding of the biotinylated phosphorylated peptide to the streptavidine-XLent and the PT66-Eu-Chelate. Subsequently the amount of phosphorylated substrate peptide was evaluated by measurement of the resonance energy transfer from the PT66-Eu-Chelate to the streptavidine-XLent. Therefore, the fluorescence emissions at 620 nm and 665 nm after excitation at 350 nm was measured in a HTRF reader, e.g. a Rubystar (BMG Labtechnologies, Offenburg, Germany) or a Viewlux (Perkin-Elmer). The ratio of the emissions at 665 nm and at […] was taken as the measure for the amount of phosphorylated substrate peptide. The data were normalised (enzyme reaction without inhibitor=0% inhibition, all other assay components but no enzyme=100% inhibition) and IC50 values were calculated by a 4 parameter fit using an inhouse software.
Target sequence in this assay (Q02763 770-1124 limits assumed): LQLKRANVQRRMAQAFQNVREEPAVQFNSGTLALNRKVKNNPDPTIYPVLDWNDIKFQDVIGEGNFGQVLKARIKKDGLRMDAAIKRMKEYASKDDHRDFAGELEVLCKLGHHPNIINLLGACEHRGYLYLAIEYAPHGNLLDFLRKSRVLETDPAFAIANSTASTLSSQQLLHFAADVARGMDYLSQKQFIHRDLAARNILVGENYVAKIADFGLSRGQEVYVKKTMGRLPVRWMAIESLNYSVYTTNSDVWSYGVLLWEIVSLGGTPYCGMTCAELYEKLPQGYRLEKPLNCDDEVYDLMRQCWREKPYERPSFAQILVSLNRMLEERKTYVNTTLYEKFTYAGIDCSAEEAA

Row | melting point [°C] | IC50 [1] [µM] | IC50 [2] [µM] | SMILES
1 | 236 | – | – | Cc1cc(-c2ccc(NC(=O)Nc3cc(C(F)(F)F)ccc3N3CCCC3)cc2)c2cnn(C)c2n1 [2.8, 1-[4-(1,6-Dimethyl-1H-pyrazolo[3,4-b]pyridin-4-yl)-phenyl]-3-(2-pyrrolidin-1-yl-5-trifluoromethyl-phenyl)-urea]
2 | – | < 0.501 | < 0.501 | Cn1ncc2c(-c3ccc(NC(=O)Nc4cccc(C(F)(F)F)c4)cc3)cc(C3(C(=O)N4CCCC4)CC3)nc21 [1.27, 1-(4-{1-Methyl-6-[1-(pyrrolidine-1-carbonyl)-cyclopropyl]-1H-pyrazolo[3,4-b]pyridin-4-yl}-phenyl)-3-(3-trifluoromethyl-phenyl)-urea]
3 | – | < 0.501 | 1 to 10 | CC(C)c1cc(-c2ccc(NC(=O)Nc3cccc(C(F)(F)F)c3)cc2)c2cnn(CCCN3CCOCC3)c2n1 [1.25, 1-{4-[6-Isopropyl-1-(3-morpholin-4-yl-propyl)-1H-pyrazolo[3,4-b]pyridin-4-yl]-phenyl}-3-(3-trifluoromethyl-phenyl)-urea]
